Source: the CheMixHub ionic liquid set
± gives the uncertainty stated by the source.

Assay: xn = mol fraction of the nth substance listed

CN(C)CCO + CCCC[n+]1ccn(C)c1.F[P-](F)(F)(F)(F)F
101 kPa
Details | electrical conductivity [S/m] | viscosity [mPa·s]
288.15 K, x1 = 0.3182 | 0.1534 ± 0.0001 | 120 ± 48
288.15 K, x1 = 0.3764 | 0.1645 ± 0.0001 | –
288.15 K, x1 = 0.5166 | 0.1918 ± 0.0001 | 63 ± 25
288.15 K, x1 = 0.709 | 0.211 ± 0.001 | 29 ± 12
288.15 K, x1 = 0.8063 | 0.1998 ± 0.0001 | 18 ± 7.2
293.15 K, x1 = 0.2143 | 0.187 ± 0.001 | 117 ± 47
293.15 K, x1 = 0.4405 | – | 61 ± 24
293.15 K, x1 = 0.4637 | 0.237 ± 0.001 | –
293.15 K, x1 = 0.5166 | 0.25 ± 0.001 | 48 ± 19
293.15 K, x1 = 0.8063 | 0.245 ± 0.001 | 14.6 ± 5.8
298.15 K, x1 = 0.1221 | 0.211 ± 0.001 | 117 ± 47
298.15 K, x1 = 0.4637 | 0.308 ± 0.001 | –
298.15 K, x1 = 0.9128 | 0.1874 ± 0.0001 | 6.7 ± 2.7
298.15 K, x1 = 1 | – | 3.8 ± 1.5
303.15 K, x1 = 0.3764 | 0.369 ± 0.001 | –
303.15 K, x1 = 0.4405 | – | 36 ± 14
303.15 K, x1 = 0.8063 | 0.355 ± 0.001 | 9.7 ± 3.9
308.15 K, x1 = 0.4405 | – | 28 ± 11
308.15 K, x1 = 0.4637 | 0.483 ± 0.001 | –
313.15 K, x1 = 0.605 | 0.611 ± 0.001 | 14 ± 5.6
318.15 K, x1 = 0.3764 | 0.679 ± 0.001 | –
323.15 K, x1 = 0.3764 | 0.792 ± 0.001 | –
323.15 K, x1 = 0.5166 | 0.849 ± 0.001 | 12.7 ± 5.1
323.15 K, x1 = 1 | – | 2.04 ± 0.82

[I-].[Li+] + CCCC[n+]1ccn(C)c1.N#C[N-]C#N
electrical conductivity [S/m], 101 kPa
Details | x2 = 0.917 | x2 = 0.9294 | x2 = 0.9462 | x2 = 0.9628 | x2 = 0.9799
288.15 K | – | 0.389 ± 0.039 | 0.465 ± 0.047 | 0.506 ± 0.051 | 0.569 ± 0.057
298.15 K | 0.577 ± 0.058 | 0.643 ± 0.065 | 0.749 ± 0.075 | 0.809 ± 0.081 | 0.892 ± 0.09
333.15 K | 1.92 ± 0.19 | 2.04 ± 0.2 | 2.28 ± 0.23 | 2.33 ± 0.23 | 2.56 ± 0.26

COCCOC + CCCC[n+]1ccn(C)c1.O=S(=O)([N-]S(=O)(=O)C(F)(F)F)C(F)(F)F
Details | electrical conductivity [S/m]
294.5 K, 100 kPa, x2 = 0.02332 | 0.62 ± 0.06

CCOCCO + CCCC[n+]1ccn(C)c1.[Br-]
100 kPa, x2 = 0
Details | viscosity [mPa·s]
298.15 K | 1.81 ± 0.18
303.15 K | 1.61 ± 0.16
308.15 K | 1.45 ± 0.15
313.15 K | 1.33 ± 0.13

CCCC[n+]1ccn(C)c1.O=[N+]([O-])[O-] + CCCC[n+]1ccn(C)c1.[Cl-]
Details | viscosity [mPa·s]
293 K, 101 kPa, x2 = 0.2549 | 223 ± 14

CCCC[n+]1ccn(C)c1C.F[B-](F)(F)F + CCCCn1cc[n+](C)c1C.O=S(=O)([N-]S(=O)(=O)C(F)(F)F)C(F)(F)F
100 kPa
Details | electrical conductivity [S/m]
313.15 K, x2 = 0.5 | 0.313 ± 0.019
318.15 K, x2 = 0.3 | 0.332 ± 0.02
318.15 K, x2 = 0.5 | 0.388 ± 0.023
318.15 K, x2 = 0.8 | 0.493 ± 0.03
323.15 K, x2 = 0 | 0.202 ± 0.012
323.15 K, x2 = 0.2 | 0.398 ± 0.024
323.15 K, x2 = 0.3 | 0.415 ± 0.025
323.15 K, x2 = 0.4 | 0.445 ± 0.027
328.15 K, x2 = 0 | 0.26 ± 0.016
333.15 K, x2 = 0.6 | 0.687 ± 0.041
338.15 K, x2 = 0 | 0.447 ± 0.027
338.15 K, x2 = 0.3 | 0.734 ± 0.044
338.15 K, x2 = 0.4 | 0.774 ± 0.046
338.15 K, x2 = 0.6 | 0.806 ± 0.048
348.15 K, x2 = 0.4 | 1.04 ± 0.062
348.15 K, x2 = 0.8 | 1.23 ± 0.074
348.15 K, x2 = 0.9 | 1.4 ± 0.084
353.15 K, x2 = 0.8 | 1.32 ± 0.079
358.15 K, x2 = 0.1 | 1.33 ± 0.08
358.15 K, x2 = 0.5 | 1.39 ± 0.083
358.15 K, x2 = 0.7 | 1.42 ± 0.085
358.15 K, x2 = 0.8 | 1.49 ± 0.089
363.15 K, x2 = 0.5 | 1.56 ± 0.094

CCCC[n+]1ccn(C)c1.O=[N+]([O-])[O-] + CCCO
101 kPa
Details | viscosity [mPa·s]
288.15 K, x2 = 0.121 | 176 ± 10
288.15 K, x2 = 0.471 | 34.53 ± 0.51
293.15 K, x2 = 0.673 | 11.32 ± 0.15
298.15 K, x2 = 0.673 | 9.79 ± 0.12
308.15 K, x2 = 0.471 | 16.82 ± 0.23
313.15 K, x2 = 0.364 | 21.01 ± 0.3
318.15 K, x2 = 0.471 | 12.54 ± 0.17
318.15 K, x2 = 0.554 | 9.21 ± 0.12
323.15 K, x2 = 0.121 | 31.91 ± 0.49
323.15 K, x2 = 0.471 | 10.97 ± 0.14
328.15 K, x2 = 0.471 | 9.68 ± 0.13
328.15 K, x2 = 0.755 | 3.24 ± 0.04
328.15 K, x2 = 0.857 | 2.14 ± 0.02
333.15 K, x2 = 0.554 | 6.37 ± 0.08

CC[n+]1ccn(CCOC)c1.N#C[S-] + CCCO
viscosity [mPa·s], 100 kPa
Details | x1 = 0.1001 | x1 = 0.2 | x1 = 0.3001 | x1 = 0.4001 | x1 = 0.5001 | x1 = 0.5719 | x1 = 0.701 | x1 = 0.7997 | x1 = 0.8987 | x1 = 1
288.15 K | 3.83 ± 0.21 | 5.71 ± 0.32 | 8.65 ± 0.49 | 14.3 ± 0.8 | 20 ± 1.1 | 28.2 ± 1.6 | 39.1 ± 2.2 | 55.7 ± 3.1 | 71.5 ± 4 | 93.1 ± 5.3
293.15 K | 3.38 ± 0.19 | 4.99 ± 0.28 | 7.53 ± 0.42 | 12.15 ± 0.68 | 16.78 ± 0.93 | 23.3 ± 1.3 | 31.8 ± 1.8 | 44.1 ± 2.4 | 56.7 ± 3.1 | 70.8 ± 3.9
298.15 K | 2.99 ± 0.17 | 4.4 ± 0.24 | 6.62 ± 0.37 | 10.43 ± 0.58 | 13.84 ± 0.77 | 19.7 ± 1.1 | 26.2 ± 1.4 | 35.7 ± 2 | 45.6 ± 2.5 | 55.8 ± 3
303.15 K | 2.66 ± 0.15 | 3.94 ± 0.22 | 5.88 ± 0.33 | 9.06 ± 0.5 | 11.68 ± 0.65 | 16.75 ± 0.92 | 21.9 ± 1.2 | 29.3 ± 1.6 | 37.4 ± 2.1 | 44.3 ± 2.4
308.15 K | 2.39 ± 0.13 | 3.52 ± 0.2 | 5.25 ± 0.29 | 7.95 ± 0.44 | 10.04 ± 0.56 | 13.92 ± 0.77 | 19.2 ± 1.1 | 24.4 ± 1.4 | 31.1 ± 1.7 | 36 ± 2
313.15 K | 2.15 ± 0.12 | 3.16 ± 0.18 | 4.72 ± 0.26 | 7.03 ± 0.39 | 8.8 ± 0.49 | 11.81 ± 0.65 | 16.05 ± 0.88 | 20.6 ± 1.1 | 26 ± 1.4 | 29.7 ± 1.6
318.15 K | 1.94 ± 0.11 | 2.84 ± 0.16 | 4.24 ± 0.24 | 6.22 ± 0.34 | 7.8 ± 0.43 | 10.16 ± 0.56 | 13.47 ± 0.74 | 17.99 ± 0.99 | 22 ± 1.2 | 24.9 ± 1.4

O=C(O)CCl + CCC[N+](CCC)(CCC)CCC.[Br-]
100 kPa, x2 = 0.333
Details | electrical conductivity [S/m] | viscosity [mPa·s]
308.15 K | 0.136 ± 0.0021 | 61.13 ± 0.92
328.15 K | 0.345 ± 0.0042 | 21.57 ± 0.32
